Target: T1, Sortase A (SrtA) (Staphylococcus aureus, UniProt Q2FV99)
T1 construct: SrtAΔN59
Assay: FRET peptide cleavage assay (Dabcyl-QALPETGEE-Edans) with purified SrtAΔN59, […] CaCl2 in the buffer
Format: biochemical

T1 sequence (Q2FV99 60-206): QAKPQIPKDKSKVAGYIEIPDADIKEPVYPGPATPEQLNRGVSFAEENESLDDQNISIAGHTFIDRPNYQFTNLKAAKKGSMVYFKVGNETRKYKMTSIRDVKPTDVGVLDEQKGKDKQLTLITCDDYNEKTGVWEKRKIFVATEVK

## COc1ccc(-c2cc(=O)c3c(O)cc(O)cc3o2)cc1 [acacetin, 5,7-dihydroxy-2-(4-methoxyphenyl)chromen-4-one]
  IC50: 128 µM
